# Measurements from article PMC6199309, “A therapeutic approach to pantothenate kinase associated neurodegeneration” (Nature Communications, 2018).
# “Also recorded” adds a separate entry of the source.
# Tests used:
# C3A cells = experiment: Cell growth and macromolecular synthesis; type: cell-based, human; details: 10 μM
# Protocol: For quantifying protein, DNA and lipid synthesis, C3A cells were first seeded at 2 × 10^6 in 60 mm-dishes and grown overnight in maintenance medium. Cells were washed once with phosphate buffered saline (PBS) and 2 ml of labeling medium plus radiochemical was added to start the 24 h incubation. […]. […] The labeling medium contained 0.1% dimethylsulfoxide (DMSO; control) or 10 μM compound in 0.1% DMSO. Cells were harvested, washed once with PBS and harvested either by trypsinization and vacuum filtration through 0.45 micron discs (Millipore, HAWP02500) for protein and DNA determinations, or by scraping and extraction in 100 μl H2O + 240 μl methanol/acetic acid 98:2 + 100 μl CHCl3 for lipid determination. Filters were washed three times with PBS, air dried and counted with a Liquid Scintillation Analyzer. Radioactivity was normalized to cell numbers and viability was >95%. Cellular lipid emulsions were separated by centrifugation and the lower phases were quantified by liquid scintillation counting and normalized to cell numbers.
# (b) Pathway labeling of C3A cells treated with either DMSO or DMSO […]
# […]. labeled amino acid mixture, DNA synthesis was determined by measuring the incorporation of [3H]thymidine, and lipid synthesis was determined by labeling with [U-14C]glucose and measuring the incorporation of label into the lipid fraction as described in Methods. […]
# SRPK2 = target: T1, SRPK2 (Homo sapiens, UniProt P78362); experiment: KINOMEscan; type: binding; details: read-out: %Ctrl @ 10000nM
# T1 construct: purchased DiscoverX KINOMEscan
# ABL1-nonphosphorylated = target: T2, ABL1-nonphosphorylated (Homo sapiens, UniProt P00519); experiment: KINOMEscan; type: binding; details: read-out: %Ctrl @ 10000nM
# T2 construct: purchased DiscoverX KINOMEscan
# p38-gamma = target: T3, p38-gamma (Homo sapiens, UniProt P53778); experiment: KINOMEscan; type: binding; details: read-out: %Ctrl @ 10000nM
# T3 construct: purchased DiscoverX KINOMEscan
# [1] = target: T4, JAK1(JH1domain-catalytic) (Homo sapiens, UniProt P23458); experiment: KINOMEscan; type: binding; details: read-out: %Ctrl @ 10000nM
# T4 construct: JAK1(JH1domain-catalytic); purchased DiscoverX KINOMEscan
# CSNK1D = target: T5, CSNK1D (Homo sapiens, UniProt P48730); experiment: KINOMEscan; type: binding; details: read-out: %Ctrl @ 10000nM
# T5 construct: purchased DiscoverX KINOMEscan
# STK35 = target: T6, STK35 (Homo sapiens, UniProt Q8TDR2); experiment: KINOMEscan KdELECT; type: binding
# T6 construct: DNA tag for qPCR (T7 phage fusion or DNA label); purchased DiscoverX KdELECT; host or cells: E. coli BL21-derived (T7 phage) or HEK-293
# FGFR3 = target: T7, FGFR3 (Homo sapiens, UniProt P22607); experiment: KINOMEscan; type: binding; details: read-out: %Ctrl @ 10000nM
# T7 construct: purchased DiscoverX KINOMEscan
# ERK5 = target: T8, ERK5 (Homo sapiens, UniProt Q13164); experiment: KINOMEscan; type: binding; details: read-out: %Ctrl @ 10000nM
# T8 construct: purchased DiscoverX KINOMEscan
# ICK = target: T9, ICK (Homo sapiens, UniProt Q9UPZ9); experiment: KINOMEscan; type: binding; details: read-out: %Ctrl @ 10000nM
# T9 construct: purchased DiscoverX KINOMEscan
# IGF1R = target: T10, IGF1R (Homo sapiens, UniProt P08069); experiment: KINOMEscan; type: binding; details: read-out: %Ctrl @ 10000nM
# T10 construct: purchased DiscoverX KINOMEscan
# KIT(D816V) = target: T11, KIT(D816V) (Homo sapiens, UniProt P10721, D816V); experiment: KINOMEscan; type: binding; details: read-out: %Ctrl @ 10000nM
# T11 construct: purchased DiscoverX KINOMEscan
# [2] = target: T12, RPS6KA4(Kin.Dom.1-N-terminal) (Homo sapiens, UniProt O75676); experiment: KINOMEscan; type: binding; details: read-out: %Ctrl @ 10000nM
# T12 construct: RPS6KA4(Kin.Dom.1-N-terminal); purchased DiscoverX KINOMEscan
# [3] = target: T13, RSK2(Kin.Dom.2-C-terminal) (Homo sapiens, UniProt P51812); experiment: KINOMEscan; type: binding; details: read-out: %Ctrl @ 10000nM
# T13 construct: RSK2(Kin.Dom.2-C-terminal); purchased DiscoverX KINOMEscan
# RET(V804L) = target: T14, RET(V804L) (Homo sapiens, UniProt P07949, V804L); experiment: KINOMEscan; type: binding; details: read-out: %Ctrl @ 10000nM
# T14 construct: purchased DiscoverX KINOMEscan
# STK36 = target: T15, STK36 (Homo sapiens, UniProt Q9NRP7); experiment: KINOMEscan; type: binding; details: read-out: %Ctrl @ 10000nM
# T15 construct: purchased DiscoverX KINOMEscan
# tissue CoA = experiment: Mouse efficacy testing: tissue CoA levels; type: in vivo
# Protocol: C57Bl6/J mice (8-week-old) were purchased from Jackson Laboratory and were fed either a regular diet (autoclavable rodent breeder diet, Labdiet) or an isocaloric, pantothenic acid-supplemented diet (1000 ppm) for 2 weeks prior to the experiment. The mice were maintained at room temperature 72° ± 2 °F, humidity 50 ± 10% and a 14 h light /10 h dark cycle with the dark cycle starting at 18:00 h. Water was supplied ad libitum. The mice were randomized into the treatment arms to achieve a normal weight distribution. […] The mice were euthanized and tissues harvested 4 h after the last dose. The tissue samples were used for total CoA, pantothenate and pantazine determinations. Blood was collected from euthanized animals, plasma or serum was prepared and stored frozen until analysis. Organs, including liver, forebrain, and hindbrain were quickly excised from euthanized animals and immediately flash frozen in liquid N2 or immersed in RNAlater® (Qiagen) overnight prior to freezing. Forebrain and hindbrain regions were identified. Total CoA was determined using 20–50 mg of tissue (liver, forebrain or hindbrain) homogenized in 2 ml of 1 mM KOH. The pH was adjusted to 12.0 with 0.25 M KOH, and incubated at 55 °C for 2 h[23]. The pH of the sample was adjusted to 8.0, and the samples were derivatized with monobromobimane (mBBr) and analyzed by HPLC equipped with a fluorescence detector.
# MRCKB = target: T16, MRCKB (Homo sapiens, UniProt Q9Y5S2); experiment: KINOMEscan; type: binding; details: read-out: %Ctrl @ 10000nM
# T16 construct: purchased DiscoverX KINOMEscan
# AMPK-alpha1 = target: T17, AMPK-alpha1 (Homo sapiens, UniProt Q13131); experiment: KINOMEscan; type: binding; details: read-out: %Ctrl @ 10000nM
# T17 construct: purchased DiscoverX KINOMEscan
# CSNK2A1 = target: T18, CSNK2A1 (Homo sapiens, UniProt P68400); experiment: KINOMEscan; type: binding; details: read-out: %Ctrl @ 10000nM
# T18 construct: purchased DiscoverX KINOMEscan
# IRAK4 = target: T19, IRAK4 (Homo sapiens, UniProt Q9NWZ3); experiment: KINOMEscan; type: binding; details: read-out: %Ctrl @ 10000nM
# T19 construct: purchased DiscoverX KINOMEscan
# PIK3CA(H1047L) = target: T20, PIK3CA(H1047L) (Homo sapiens, UniProt P42336, H1047L); experiment: KINOMEscan; type: binding; details: read-out: %Ctrl @ 10000nM
# T20 construct: purchased DiscoverX KINOMEscan
# T6 sequence (Q8TDR2 whole entry, the tested form may be a part): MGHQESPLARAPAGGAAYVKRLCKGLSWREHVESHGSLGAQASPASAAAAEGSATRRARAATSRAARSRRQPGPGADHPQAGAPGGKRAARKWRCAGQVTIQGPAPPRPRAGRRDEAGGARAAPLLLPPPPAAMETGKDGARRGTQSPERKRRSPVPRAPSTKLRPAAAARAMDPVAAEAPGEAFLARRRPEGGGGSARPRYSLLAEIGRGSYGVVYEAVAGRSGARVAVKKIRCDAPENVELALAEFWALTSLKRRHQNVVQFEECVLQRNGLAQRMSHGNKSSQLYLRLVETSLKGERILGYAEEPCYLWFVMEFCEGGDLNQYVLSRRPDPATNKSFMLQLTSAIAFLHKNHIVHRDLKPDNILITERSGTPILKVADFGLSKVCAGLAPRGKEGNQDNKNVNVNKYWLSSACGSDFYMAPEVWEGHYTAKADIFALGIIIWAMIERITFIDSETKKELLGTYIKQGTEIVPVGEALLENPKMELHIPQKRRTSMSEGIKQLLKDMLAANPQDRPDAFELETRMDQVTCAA
# T7 sequence (P22607 23-806): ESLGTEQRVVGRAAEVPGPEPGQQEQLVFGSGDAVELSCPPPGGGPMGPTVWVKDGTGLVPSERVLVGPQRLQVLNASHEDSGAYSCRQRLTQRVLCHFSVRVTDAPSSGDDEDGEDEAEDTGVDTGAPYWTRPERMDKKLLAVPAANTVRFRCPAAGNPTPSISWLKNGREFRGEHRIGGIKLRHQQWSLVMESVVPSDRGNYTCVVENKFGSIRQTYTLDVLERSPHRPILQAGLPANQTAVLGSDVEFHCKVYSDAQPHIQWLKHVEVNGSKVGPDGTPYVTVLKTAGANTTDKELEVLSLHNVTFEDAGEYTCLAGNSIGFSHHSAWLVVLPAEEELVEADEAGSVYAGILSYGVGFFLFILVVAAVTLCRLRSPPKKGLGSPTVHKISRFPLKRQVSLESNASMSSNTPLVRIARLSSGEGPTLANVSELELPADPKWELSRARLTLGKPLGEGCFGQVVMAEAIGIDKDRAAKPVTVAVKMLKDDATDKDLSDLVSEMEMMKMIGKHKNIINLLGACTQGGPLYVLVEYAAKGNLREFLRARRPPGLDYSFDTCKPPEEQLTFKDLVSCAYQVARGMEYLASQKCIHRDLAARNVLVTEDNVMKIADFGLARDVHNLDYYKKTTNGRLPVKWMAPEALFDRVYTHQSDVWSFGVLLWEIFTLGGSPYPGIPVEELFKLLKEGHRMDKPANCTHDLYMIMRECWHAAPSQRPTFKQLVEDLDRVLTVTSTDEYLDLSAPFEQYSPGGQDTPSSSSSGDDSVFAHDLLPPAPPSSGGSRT
# T16 sequence (Q9Y5S2 whole entry): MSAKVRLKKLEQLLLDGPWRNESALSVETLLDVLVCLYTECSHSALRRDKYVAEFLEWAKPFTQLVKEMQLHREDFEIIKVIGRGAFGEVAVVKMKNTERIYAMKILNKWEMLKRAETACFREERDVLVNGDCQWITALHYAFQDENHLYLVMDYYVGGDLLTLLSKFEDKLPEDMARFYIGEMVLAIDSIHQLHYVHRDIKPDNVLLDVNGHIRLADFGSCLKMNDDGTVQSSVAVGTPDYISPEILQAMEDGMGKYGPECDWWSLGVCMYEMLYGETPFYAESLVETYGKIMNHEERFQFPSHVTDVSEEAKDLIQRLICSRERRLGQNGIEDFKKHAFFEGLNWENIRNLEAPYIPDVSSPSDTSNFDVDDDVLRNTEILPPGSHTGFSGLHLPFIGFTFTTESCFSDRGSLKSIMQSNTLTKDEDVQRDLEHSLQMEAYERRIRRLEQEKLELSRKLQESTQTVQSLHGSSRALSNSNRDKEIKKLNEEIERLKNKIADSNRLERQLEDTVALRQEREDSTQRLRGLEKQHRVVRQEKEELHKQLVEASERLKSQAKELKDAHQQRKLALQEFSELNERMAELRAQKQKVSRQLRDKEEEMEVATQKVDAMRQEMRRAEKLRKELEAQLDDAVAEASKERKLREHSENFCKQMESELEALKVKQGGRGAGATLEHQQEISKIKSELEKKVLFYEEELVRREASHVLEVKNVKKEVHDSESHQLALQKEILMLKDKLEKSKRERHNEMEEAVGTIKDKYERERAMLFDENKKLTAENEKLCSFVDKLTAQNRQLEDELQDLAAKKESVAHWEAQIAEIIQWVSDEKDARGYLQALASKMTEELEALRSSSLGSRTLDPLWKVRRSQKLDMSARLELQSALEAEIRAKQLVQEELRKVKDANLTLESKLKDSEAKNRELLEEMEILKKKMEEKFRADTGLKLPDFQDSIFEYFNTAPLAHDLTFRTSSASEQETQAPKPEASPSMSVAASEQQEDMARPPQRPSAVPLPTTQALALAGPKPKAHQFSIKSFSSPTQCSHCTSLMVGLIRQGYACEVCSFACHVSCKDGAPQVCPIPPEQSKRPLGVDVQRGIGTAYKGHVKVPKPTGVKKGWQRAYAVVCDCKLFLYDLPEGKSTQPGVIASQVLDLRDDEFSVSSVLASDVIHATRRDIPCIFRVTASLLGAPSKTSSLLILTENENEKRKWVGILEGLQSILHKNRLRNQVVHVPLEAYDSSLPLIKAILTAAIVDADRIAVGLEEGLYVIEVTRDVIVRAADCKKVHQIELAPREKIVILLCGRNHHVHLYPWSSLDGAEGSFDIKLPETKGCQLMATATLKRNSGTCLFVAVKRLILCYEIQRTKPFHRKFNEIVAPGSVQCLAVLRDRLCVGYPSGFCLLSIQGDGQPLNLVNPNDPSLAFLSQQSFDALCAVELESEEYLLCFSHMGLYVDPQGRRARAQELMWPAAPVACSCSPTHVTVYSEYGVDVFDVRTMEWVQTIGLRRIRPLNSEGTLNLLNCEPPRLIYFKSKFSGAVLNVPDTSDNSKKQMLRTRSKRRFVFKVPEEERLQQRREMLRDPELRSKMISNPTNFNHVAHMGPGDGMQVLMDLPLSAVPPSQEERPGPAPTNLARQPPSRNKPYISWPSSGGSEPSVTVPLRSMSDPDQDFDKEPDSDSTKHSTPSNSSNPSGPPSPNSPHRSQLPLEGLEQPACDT
# T13 sequence (P51812 398-740 limits assumed): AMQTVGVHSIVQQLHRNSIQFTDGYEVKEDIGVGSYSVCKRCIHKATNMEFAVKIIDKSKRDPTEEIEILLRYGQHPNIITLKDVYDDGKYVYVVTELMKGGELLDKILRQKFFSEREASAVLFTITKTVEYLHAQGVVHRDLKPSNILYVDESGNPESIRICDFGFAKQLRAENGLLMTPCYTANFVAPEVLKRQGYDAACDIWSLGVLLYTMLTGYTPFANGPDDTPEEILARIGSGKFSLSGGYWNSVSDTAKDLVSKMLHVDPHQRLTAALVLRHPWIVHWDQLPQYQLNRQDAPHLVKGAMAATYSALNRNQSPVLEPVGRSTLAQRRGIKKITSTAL
# T11 sequence (P10721 26-976 D816V): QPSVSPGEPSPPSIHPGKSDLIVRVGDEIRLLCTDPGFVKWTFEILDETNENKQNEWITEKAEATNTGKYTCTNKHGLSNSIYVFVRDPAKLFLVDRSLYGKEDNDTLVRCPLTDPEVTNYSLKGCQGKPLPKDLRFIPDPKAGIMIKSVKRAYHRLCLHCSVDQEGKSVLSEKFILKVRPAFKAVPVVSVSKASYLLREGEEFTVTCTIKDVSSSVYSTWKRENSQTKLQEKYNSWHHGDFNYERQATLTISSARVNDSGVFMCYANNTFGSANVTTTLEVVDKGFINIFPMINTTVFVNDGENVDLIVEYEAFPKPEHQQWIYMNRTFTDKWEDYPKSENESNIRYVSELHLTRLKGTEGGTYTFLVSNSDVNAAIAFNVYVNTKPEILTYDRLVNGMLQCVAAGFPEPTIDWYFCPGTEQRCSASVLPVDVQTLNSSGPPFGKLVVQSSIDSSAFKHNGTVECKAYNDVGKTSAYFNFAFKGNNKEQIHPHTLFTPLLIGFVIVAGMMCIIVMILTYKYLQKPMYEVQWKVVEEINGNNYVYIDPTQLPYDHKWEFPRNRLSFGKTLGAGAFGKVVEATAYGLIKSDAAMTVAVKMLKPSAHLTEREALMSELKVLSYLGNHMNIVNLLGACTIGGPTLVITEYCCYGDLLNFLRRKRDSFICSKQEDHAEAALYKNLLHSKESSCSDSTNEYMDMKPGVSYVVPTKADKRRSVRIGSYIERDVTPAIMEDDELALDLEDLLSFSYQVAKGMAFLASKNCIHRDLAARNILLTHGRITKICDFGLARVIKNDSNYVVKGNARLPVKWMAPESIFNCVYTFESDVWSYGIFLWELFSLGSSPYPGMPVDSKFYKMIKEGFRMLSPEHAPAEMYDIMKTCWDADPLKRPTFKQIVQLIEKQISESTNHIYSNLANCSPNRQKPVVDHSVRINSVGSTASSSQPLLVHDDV
# T1 sequence (P78362 whole entry): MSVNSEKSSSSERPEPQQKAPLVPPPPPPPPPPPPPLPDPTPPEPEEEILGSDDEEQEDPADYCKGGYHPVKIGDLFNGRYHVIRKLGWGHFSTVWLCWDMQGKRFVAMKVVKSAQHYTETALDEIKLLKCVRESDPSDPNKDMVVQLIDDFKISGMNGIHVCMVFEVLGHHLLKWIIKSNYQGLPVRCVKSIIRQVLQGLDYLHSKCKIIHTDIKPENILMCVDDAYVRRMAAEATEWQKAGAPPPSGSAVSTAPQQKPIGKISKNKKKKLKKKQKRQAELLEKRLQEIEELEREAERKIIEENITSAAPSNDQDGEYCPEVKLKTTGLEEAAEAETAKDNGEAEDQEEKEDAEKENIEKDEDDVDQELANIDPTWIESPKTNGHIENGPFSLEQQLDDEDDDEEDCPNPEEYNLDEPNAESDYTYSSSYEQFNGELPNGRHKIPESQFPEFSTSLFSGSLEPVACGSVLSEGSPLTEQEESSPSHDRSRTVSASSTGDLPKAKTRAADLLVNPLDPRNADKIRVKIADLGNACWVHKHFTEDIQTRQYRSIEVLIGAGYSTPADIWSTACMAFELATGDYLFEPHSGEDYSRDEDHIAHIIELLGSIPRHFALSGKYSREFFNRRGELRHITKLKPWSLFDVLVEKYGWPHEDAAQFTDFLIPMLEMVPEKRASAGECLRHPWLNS
smiles,measurement,setting,value
"CC(C)c1ccc(CC(=O)N2CCN(c3ccc(C#N)nn3)CC2)cc1 [PZ-2891, 6-(4-(2-(4-isopropylphenyl)acetyl)piperazin-1-yl)pyridazine-3-carbonitrile]","cell viability (cell growth, synthesis of DNA, protein and lipid)",C3A cells,no differences between control and PZ-2891; also recorded: did not impact cell viability
same,remaining binding at 10 µM,SRPK2,97%
same,remaining binding at 10 µM,ABL1-nonphosphorylated,65%
same,remaining binding at 10 µM,p38-gamma,58%
same,remaining binding at 10 µM,[1],74%
same,remaining binding at 10 µM,CSNK1D,93%
same,Kd,STK35; STK35,> 30 µM
same,Kd,STK35; STK35 Replicate ID = 1,> 30 µM
same,Kd,STK35; STK35 Replicate ID = 2,> 30 µM
same,remaining binding at 10 µM,FGFR3,96%
same,remaining binding at 10 µM,ERK5,93%
same,remaining binding at 10 µM,ICK,81%
same,remaining binding at 10 µM,IGF1R,91%
same,remaining binding at 10 µM,KIT(D816V),92%
same,remaining binding at 10 µM,[2],96%
same,remaining binding at 10 µM,[3],89%
same,remaining binding at 10 µM,RET(V804L),96%
same,remaining binding at 10 µM,STK36,84%
same,increase in total liver CoA,"tissue CoA; 30 mg/kg PZ-2891 alone, oral gavage, 5 doses at 12 h intervals",50%
same,increase in liver CoA levels,"tissue CoA; 30 mg/kg PZ-2891 plus 200 mg/kg pantothenate, oral gavage, 5 doses at 12 h intervals",100%
same,muscle CoA levels,"tissue CoA; 112 ppm PZ-2891 in chow, 1 week",not elevated
same,"CoA levels in tissues, 1 week chow","tissue CoA; 112 ppm PZ-2891 in chow, 1000 ppm pantothenate, 1 week","elevated in liver, brain, and to a lesser extent, heart"
same,"total CoA in liver, forebrain and hindbrain","tissue CoA; male and female mice, 5 oral doses every 12 h plus 100 mg/kg pantothenate",dose-dependent increase in total CoA
same,weights or behavior of treated animals,tissue CoA; one-month treatment in diet,no difference in the weights or behavior
same,"liver and brain CoA, 4 weeks diet","tissue CoA; series of PZ-2891 doses in diet, 1000 ppm pantothenate, 4 weeks",significantly elevated
same,remaining binding at 10 µM,MRCKB,100%
same,remaining binding at 10 µM,AMPK-alpha1,92%
same,remaining binding at 10 µM,CSNK2A1,82%
same,remaining binding at 10 µM,IRAK4,93%
same,remaining binding at 10 µM,PIK3CA(H1047L),69%
